The source of these data is patent publication US12274693B2, “Anti-proprotein convertase subtilisin kexin type 9 (anti-PCSK9) nano-formulation of compounds and methods of using the same” (SHIFA BIOMEDICAL CORPORATION, priority 2018, dated 2025).

Where “and” joins values, the source holds several entries; their conditions need not be identical. Equal values may be shown once. Read-outs that look alike come from different tables or passages of the source.

Data set [1] deals with T1, PCSK9/LDLR interaction (His-tagged PCSK9, recombinant LDLR-AB domain) (Homo sapiens, UniProt Q8NBP7).
T1 construct: purchased Circulex
T1 sequence (Q8NBP7 153-692): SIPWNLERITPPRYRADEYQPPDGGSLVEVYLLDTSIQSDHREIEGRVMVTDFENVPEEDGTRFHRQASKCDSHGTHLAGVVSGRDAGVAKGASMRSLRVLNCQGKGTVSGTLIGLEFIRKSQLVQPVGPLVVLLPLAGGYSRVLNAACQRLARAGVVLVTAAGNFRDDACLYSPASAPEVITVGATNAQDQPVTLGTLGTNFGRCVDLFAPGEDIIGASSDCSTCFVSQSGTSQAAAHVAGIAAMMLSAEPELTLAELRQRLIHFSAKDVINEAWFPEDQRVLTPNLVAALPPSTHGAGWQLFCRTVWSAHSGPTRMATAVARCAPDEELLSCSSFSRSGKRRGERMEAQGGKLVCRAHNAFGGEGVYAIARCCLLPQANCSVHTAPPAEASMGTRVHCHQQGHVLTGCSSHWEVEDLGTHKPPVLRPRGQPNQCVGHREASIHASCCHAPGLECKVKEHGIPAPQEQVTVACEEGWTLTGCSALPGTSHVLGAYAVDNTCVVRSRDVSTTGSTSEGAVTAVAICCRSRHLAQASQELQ
T1 sequence (Q8NBP7 31-152 partner limits assumed): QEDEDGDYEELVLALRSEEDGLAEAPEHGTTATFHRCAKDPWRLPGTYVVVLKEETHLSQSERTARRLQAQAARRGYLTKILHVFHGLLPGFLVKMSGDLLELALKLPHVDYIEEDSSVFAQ
The data set can be described thus: In vitro ELISA binding assay (Circulex) for inhibition of the PCSK9/LDLR interaction. To be noted: for IC50 for inhibition of the PCSK9/LDLR interaction, range in words: FIG. 4A. The protocol:
FIG. 4A provides a graph of the effect of SBC-115,418, SBC-115,433, SBC-115,448, and SBC-115,462 on the PCSK9/LDLR interaction. An in vitro ELISA assay kit was utilized (Circulex). For screening inhibitors of the PCSK9/LDLR interaction, different concentrations (0.01 nM-100 μM) of selected compounds were incubated with His-tagged PCSK9 and then added to wells that were pre-coated with recombinant LDLR-AB domain. After incubation, the plate was washed and the amount of recombinant His-tagged PCSK9 was measured using the biotinylated anti-His-tag and horseradish peroxidase conjugated Streptavidin and quantitated using a BioTek Synergy™ 2 plate reader. The effect of each compound on the PCSK9 binding to the recombinant LDLR-AB domain was calculated.
FIG. 4B provides a graph of the effect of SBC-115,418 on the PCSK9/LDLR interaction under increased solubilization conditions (10% DMSO) (418s). An in vitro ELISA assay (Circulex) was utilized. Different concentrations ([…]-100 μM) of SBC-115,418 in DMSO were incubated with His-tagged PCSK9 and then added to wells that were pre-coated with recombinant LDLR-AB domain as described in FIG. 4A.
(§1) Testing of SBC-115,418 and analogs was performed in a binding assay to determine their ability to inhibit the PCSK9/LDLR interaction. SBC-115,418 inhibited the PCSK9/LDLR interaction with an IC50 in the sub-micro-molar range. Experimental details are provided hereinabove and in WO 2017/222953. […] Given the lipophilicity of lead compound SBC-115,418, a solubility study was undertaken to look at its effects on binding (FIG. 4B). An in vitro ELISA binding assay was performed at different concentrations (0.01 μM-100 μM) of SBC-115,418 under different solubilization conditions.
(An ELISA detects its analyte on a solid surface through an enzyme-linked reagent.)

A further data set concerns PCSK9. The data set can be described thus: Test for secreted PCSK9 (synthesis, processing and secretion). The class given is cell-based. Particulars: in the cells or into the media. From the text: Experimental details are provided hereinabove and in WO 2017/222953.
A further data set relates to LDLR. The data set can be described thus: Cell-based assay for LDLR upregulation. Particulars: compared to cells treated with same volume of DMSO.
Another data set concerns HepG2 cells. The data set can be described thus: Uptake of fluorescent Dil-LDL in HepG2 cells. The class given is cell-based. Particulars: 10 μM. An excerpt:
FIG. 5 provides a graph of the effect of SBC-115,418, SBC-115,433, SBC-115,448, and SBC-115,462 on the uptake of fluorescent Dil-LDL in HepG2 Cells. The compounds were validated for their ability to increase uptake of Fluorescent Dil-LDL in HepG2 cells.

The nature of data set [2]: Lipophilicity and solubility of the compounds. The data set is classed as physicochemical. Here is the method:
[formula] The size distribution of the nanoparticles in aqueous dispersions was determined using a Malvern zeta sizer (Malvern Instrumentation Co, Westborough, MA). 50 mg of the lyophilized nanoparticles were re-suspended in 2 mL of water. This nanoparticles solution was placed into a 3 mL, 4-sided, clear plastic cuvette, and measured directly. Shown are the HPLC chromatograms of SBC-115,418 used to construct the standard curve at different concentrations. Calibrator series of SBC-115,418 were prepared in DMSO by a 2-fold series dilution including 3.9, 7.8, 15.6, 31.5, 62.5, 125, and 250 μg/mL (left).
as §1

Setting [3] is: ELISA, read-out: in vitro inhibition of the PCSK9/LDLR interaction (IC50).

Take `O=C(Nc1ccc(C(=O)Nc2ccc(-c3ncco3)cc2)c(F)c1)c1cc2ccccc2o1` [SBC-115,448]: the “IC50 for inhibition of the PCSK9/LDLR interaction, range in words” value in data set [1] (ELISA) was “low micro-molar”. Further, the IC50 in data set [1] (setting [3]) is less than 5 µM. Further, in the data set on PCSK9, the “effect on PCSK9 synthesis, processing and secretion” value (shortened to “effect on PCSK9 synthesis”) is on record as “no significant effect”. Moreover, the “level of LDLR versus DMSO control” value in the data set on LDLR is “significant upregulation”. Besides, the “Fluorescent Dil-LDL uptake” value in the data set on HepG2 cells is recorded as “increase”.

For orientation: solubility means the concentration that dissolves in the medium under given conditions. In the case of `COc1ccc2oc(C(=O)Nc3ccc(C(=O)Nc4ccc(-c5nc6ccccc6o5)cc4)cc3)c(C)c2c1` [SBC-115,418], the “IC50 for inhibition of the PCSK9/LDLR interaction, range in words” value in data set [1] (ELISA) is “sub-micro-molar”. Also, the IC50 was less than 5 µM in data set [1] (setting [3]) and 0.05 µM in data set [1] (increased solubilization conditions (10% DMSO), FIG. 4B, read-out: IC50 of in vitro binding under improved solubility conditions). Besides, in the data set with PCSK9, the “effect on PCSK9 synthesis” value is given as “no significant effect”. Further, the “level of LDLR versus DMSO control” value in the data set with LDLR is reported as “significant upregulation”. Besides, in the data set on HepG2 cells, the “Fluorescent Dil-LDL uptake” value is “significant increase”. In addition, the solubility in data set [2] (80% acetonitrile, organic solvent or mixture) was less than 100 µg/mL.

`COc1ccc2oc(C(=O)Nc3ccc(C(=O)Nc4ccc(-c5ncco5)cc4)cc3)c(C)c2c1` [SBC-115,462]: the “IC50 for inhibition of the PCSK9/LDLR interaction, range in words” value in data set [1] (ELISA) is “low micro-molar”. Further, the IC50 in data set [1] (setting [3]) was less than 5 µM. For the same compound, in the data set with PCSK9, the “effect on PCSK9 synthesis” value is reported as “no significant effect”. The “level of LDLR versus DMSO control” value in the data set on LDLR is “significant upregulation”. Besides, the “Fluorescent Dil-LDL uptake” value in the data set with HepG2 cells is reported as “significant increase”.

In the case of `O=C(Nc1ccc(-c2ncco2)cc1)c1ccc(NC(=O)c2cc3ccccc3o2)cc1` [SBC-115,433], in data set [1] (ELISA), the “IC50 for inhibition of the PCSK9/LDLR interaction, range in words” value is “sub-micro-molar”. In data set [1] (setting [3]), the IC50 is less than 5 µM. Further, the “effect on PCSK9 synthesis” value with PCSK9 is on record as “no significant effect”. Moreover, the “level of LDLR versus DMSO control” value with LDLR is “significant upregulation”. Besides, the “Fluorescent Dil-LDL uptake” value with HepG2 cells is on record as “increase”.

Broadly, the logP is the decadic logarithm of the partition coefficient of the neutral form, usually between octanol and water. Read a low logP as a more hydrophilic compound. Turning to `COc1ccc2oc(C(=O)Nc3ccc(C(=O)Nc4ccc(-c5nc6ccccc6[nH]5)cc4)cc3)c(C)c2c1` [SBC-115,477], the “IC50 for inhibition of the PCSK9/LDLR interaction, range in words” value in data set [1] (ELISA) was “sub-micro-molar”. In data set [1] (setting [3]), the IC50 is < 5 µM and 0.19 µM. Moreover, in the data set on PCSK9, the “effect on PCSK9 synthesis” value is recorded as “no significant effect”. For the same compound, in the data set on LDLR, the “level of LDLR versus DMSO control” value was “upregulation”. For the same compound, in data set [2], the logP came out at 4.5 and the “solubility relative to SBC-115,418” value is given as “increased solubility”.
